Measurements from patent US10980765B2, “Isothiocyanatostilbenes as a novel method and product for treating cancer” (BOARD OF SUPERVISORS OF LOUISIANA STATE UNIVERSITY AND …, priority 2015, dated 2021).

Tests used:
[1] = tested on: matrix metalloproteinase release; settings: cited from earlier work
[2] = biological target: c-Met M1250T (M1268T) (Homo sapiens, UniProt P08581, M1250T); experiment: Phosphorylation inhibition assay (Z′-LYTE Kinase Assay-Tyr6 Peptide), mutant c-Met; format: biochemical; settings: cell-free kinase assay, 200 μM ATP
c-Met M1250T (M1268T), sequence (P08581 956-1390 M1250T limits assumed): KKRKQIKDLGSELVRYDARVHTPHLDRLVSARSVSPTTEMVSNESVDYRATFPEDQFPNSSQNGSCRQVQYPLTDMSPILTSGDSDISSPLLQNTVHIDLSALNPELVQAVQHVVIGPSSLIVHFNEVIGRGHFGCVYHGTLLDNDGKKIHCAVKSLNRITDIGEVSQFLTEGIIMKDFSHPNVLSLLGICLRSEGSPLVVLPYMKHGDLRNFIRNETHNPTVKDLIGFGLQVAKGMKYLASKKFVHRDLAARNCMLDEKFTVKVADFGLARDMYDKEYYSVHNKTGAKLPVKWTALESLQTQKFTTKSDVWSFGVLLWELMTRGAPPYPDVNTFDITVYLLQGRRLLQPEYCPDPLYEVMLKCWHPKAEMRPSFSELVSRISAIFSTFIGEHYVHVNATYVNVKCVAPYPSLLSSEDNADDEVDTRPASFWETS
Description: (§1) Western blot was used to analyze pMet expression. […] Western blot was used to analyze the indicated proteins.
(§2) Phosphorylation inhibition assay: Z′-LYTE™ Kinase Assay-Tyr6 Peptide kit (Invitrogen) was used to assess the ability of tested compounds to inhibit c-Met phosphorylation. […] After 1 hour incubation at room temperature, 10 μl development solution containing site-specific protease was added to each well. Incubation was continued for 1 hour. The reaction was then stopped, and the fluorescent signal ratio of 445 nm (coumarin)/520 nm (fluorescein) was determined on a plate reader (BioTek FLx800™), which reflects the peptide substrate cleavage status and/or the kinase inhibitory activity in the reaction. […] The IC50 value for each compound was calculated by nonlinear regression of log concentration versus % c-Met phosphorylation ±S.E.M., implemented in GraphPad Prism version 5.0 (GraphPad Software, CA, USA).

[3] = tested on: MDA-MB-231/GFP human breast cancer cells; experiment: Xenograft study, orthotopic breast tumor growth; format: in vivo, Athymic nude mice; settings: 5 mg/kg then 10 mg/kg i.p.
Description: Data are shown as average+S.E.M., *p<0.05.
Xenograft studies: All animal experiments were approved by the Institutional Animal Care and Use Committee, University of Louisiana at Monroe, and were handled in strict accordance with good animal practice as defined by the NIH guidelines. Athymic nude mice (Foxn1^nu/Foxn1^+, 4-5 weeks, female) were purchased from Harlan (Indianapolis, Ind.). The mice had free access to standard pellet food and water. The animals were acclimated to animal house facility conditions at a temperature of 18-25° C., with a relative humidity of 55 to 65% and a 12 h light/dark cycle, for one week prior to the experiments. MDA-MB-231/GFP human breast cancer cells were cultured and resuspended in serum-free DMEM medium (20 μl). After anesthesia, cell suspensions (1×10^6 cells/20 μl) were inoculated subcutaneously into the second mammary gland fat pad just beneath the nipple of each animal to generate orthotopic breast tumors. […] The mice were monitored by measuring tumor volume, body weight, and clinical observation. Tumor volume (V) was calculated by V=L/2×W^2, where L was the length and W was the width of tumors. The results are presented as average ±S.E.M. Differences among various treatment groups were determined by the analysis of variance (ANOVA) followed by Dunnett's test using PASW statistics version 18. […]

[4] = tested on: Cells; experiment: 2D proliferation (Cell Titer Blue); format: cell-based; settings: 24-72 hours
Description: A TO timepoint was also measured. For each timepoint, cells were exposed to Cell Titer Blue reagent (Promega) for 1 hour at 37° C. 5% CO2. Experiments were performed with quadruplicate replicates. Fluorescence was measured using a BioTek Synergy 4 plate reader with Gen5 software.

[5] = biological target: T1, IGFR (Homo sapiens, UniProt P08069); experiment: Western blot of IGFR activation by IGF in DU145 cells; format: cell-based; settings: 4 μM DIDS or 25 μM H2DIDS; DU145, 100 ng/ml IGF 20 min
T1 construct: endogenous in cells; host or cells: DU145
T1 sequence (P08069 31-1367): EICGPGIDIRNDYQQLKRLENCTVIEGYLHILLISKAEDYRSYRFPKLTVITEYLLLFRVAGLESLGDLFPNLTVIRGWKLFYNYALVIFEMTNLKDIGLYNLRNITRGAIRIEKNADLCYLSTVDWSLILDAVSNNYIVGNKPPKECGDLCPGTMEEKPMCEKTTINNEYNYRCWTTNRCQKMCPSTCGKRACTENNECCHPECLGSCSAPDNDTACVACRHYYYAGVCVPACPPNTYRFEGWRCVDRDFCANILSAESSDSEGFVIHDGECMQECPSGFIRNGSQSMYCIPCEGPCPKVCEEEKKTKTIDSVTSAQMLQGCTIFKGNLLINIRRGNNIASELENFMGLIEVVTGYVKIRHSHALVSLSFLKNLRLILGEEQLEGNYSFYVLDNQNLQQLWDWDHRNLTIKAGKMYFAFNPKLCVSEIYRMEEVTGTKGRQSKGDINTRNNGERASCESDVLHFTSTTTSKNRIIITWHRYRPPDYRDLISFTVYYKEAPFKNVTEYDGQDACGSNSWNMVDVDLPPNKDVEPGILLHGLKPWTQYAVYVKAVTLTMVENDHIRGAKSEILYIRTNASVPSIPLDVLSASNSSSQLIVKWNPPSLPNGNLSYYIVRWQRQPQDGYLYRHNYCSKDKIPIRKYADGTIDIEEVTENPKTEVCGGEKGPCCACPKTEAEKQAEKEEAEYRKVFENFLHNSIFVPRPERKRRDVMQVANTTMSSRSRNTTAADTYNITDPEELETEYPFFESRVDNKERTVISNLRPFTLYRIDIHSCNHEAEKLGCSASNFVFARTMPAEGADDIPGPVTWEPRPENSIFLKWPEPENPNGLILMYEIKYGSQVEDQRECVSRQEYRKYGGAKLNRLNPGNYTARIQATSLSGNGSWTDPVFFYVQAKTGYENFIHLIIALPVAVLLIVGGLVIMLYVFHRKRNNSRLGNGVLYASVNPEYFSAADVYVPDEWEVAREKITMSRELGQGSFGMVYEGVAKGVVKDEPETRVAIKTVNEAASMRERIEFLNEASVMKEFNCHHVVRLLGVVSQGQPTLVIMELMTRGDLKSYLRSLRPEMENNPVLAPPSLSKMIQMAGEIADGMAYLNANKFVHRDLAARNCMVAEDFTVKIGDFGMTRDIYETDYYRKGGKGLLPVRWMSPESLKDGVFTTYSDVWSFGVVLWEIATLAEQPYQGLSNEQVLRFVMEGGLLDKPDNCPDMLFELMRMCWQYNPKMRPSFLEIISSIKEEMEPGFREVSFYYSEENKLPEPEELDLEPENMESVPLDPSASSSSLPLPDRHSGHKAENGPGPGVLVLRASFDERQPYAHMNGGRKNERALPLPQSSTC
Description: (§3) Western blot analysis: Cells were grown to ˜70% confluency prior to treatment. Cells were serum-starved in serum-free media for 30 minutes prior to treatment in complete media or serum-free media for the indicated times. Cell lysates were collected in Laemmli (125 mM Tris, 4% SDS, 0.01% bromophenol blue, 30% sucrose) containing 0.5% β-mercaptoethanol and boiled ˜8 minutes. Primary antibodies include: phospho-c-Met (Y1234/1235), phospho-Akt (S473), pEGFR […], pIGF-IRβ (Y1135/1136) (Cell Signaling Technology; Beverly, Mass.); α-actin (Sigma-Aldrich), c-Met (C-28) (Life Technologies). Secondary antibodies include: horseradish peroxidase-conjugated anti-rabbit and anti-mouse (GE Healthcare; Pittsburgh, Pa.). ECL 2 was used for chemiluminescent detection (Thermo Scientific; Rockford, Ill.). Densitometry was calculated using ImageJ (NIH).

[6] = tested on: protein translocation across the ER membrane; settings: cited from earlier work
[7] = tested on: F0F1-ATP synthase; settings: cited from earlier work
[8] = tested on: Akt; experiment: Western blot of downstream Akt (phospho-Akt) in HGF-treated DU145 cells; format: cell-based; settings: ˜8 μM compound, 33 ng/ml HGF 20 min, serum-free
Description: as §3

[9] = biological target: wild-type c-Met (Homo sapiens, UniProt P08581); experiment: Phosphorylation inhibition assay (Z′-LYTE Kinase Assay-Tyr6 Peptide), wild-type c-Met; format: biochemical; settings: cell-free kinase assay, 200 μM ATP; read-out: IC50, activation of wild-type c-Met
wild-type c-Met, sequence (P08581 25-1390): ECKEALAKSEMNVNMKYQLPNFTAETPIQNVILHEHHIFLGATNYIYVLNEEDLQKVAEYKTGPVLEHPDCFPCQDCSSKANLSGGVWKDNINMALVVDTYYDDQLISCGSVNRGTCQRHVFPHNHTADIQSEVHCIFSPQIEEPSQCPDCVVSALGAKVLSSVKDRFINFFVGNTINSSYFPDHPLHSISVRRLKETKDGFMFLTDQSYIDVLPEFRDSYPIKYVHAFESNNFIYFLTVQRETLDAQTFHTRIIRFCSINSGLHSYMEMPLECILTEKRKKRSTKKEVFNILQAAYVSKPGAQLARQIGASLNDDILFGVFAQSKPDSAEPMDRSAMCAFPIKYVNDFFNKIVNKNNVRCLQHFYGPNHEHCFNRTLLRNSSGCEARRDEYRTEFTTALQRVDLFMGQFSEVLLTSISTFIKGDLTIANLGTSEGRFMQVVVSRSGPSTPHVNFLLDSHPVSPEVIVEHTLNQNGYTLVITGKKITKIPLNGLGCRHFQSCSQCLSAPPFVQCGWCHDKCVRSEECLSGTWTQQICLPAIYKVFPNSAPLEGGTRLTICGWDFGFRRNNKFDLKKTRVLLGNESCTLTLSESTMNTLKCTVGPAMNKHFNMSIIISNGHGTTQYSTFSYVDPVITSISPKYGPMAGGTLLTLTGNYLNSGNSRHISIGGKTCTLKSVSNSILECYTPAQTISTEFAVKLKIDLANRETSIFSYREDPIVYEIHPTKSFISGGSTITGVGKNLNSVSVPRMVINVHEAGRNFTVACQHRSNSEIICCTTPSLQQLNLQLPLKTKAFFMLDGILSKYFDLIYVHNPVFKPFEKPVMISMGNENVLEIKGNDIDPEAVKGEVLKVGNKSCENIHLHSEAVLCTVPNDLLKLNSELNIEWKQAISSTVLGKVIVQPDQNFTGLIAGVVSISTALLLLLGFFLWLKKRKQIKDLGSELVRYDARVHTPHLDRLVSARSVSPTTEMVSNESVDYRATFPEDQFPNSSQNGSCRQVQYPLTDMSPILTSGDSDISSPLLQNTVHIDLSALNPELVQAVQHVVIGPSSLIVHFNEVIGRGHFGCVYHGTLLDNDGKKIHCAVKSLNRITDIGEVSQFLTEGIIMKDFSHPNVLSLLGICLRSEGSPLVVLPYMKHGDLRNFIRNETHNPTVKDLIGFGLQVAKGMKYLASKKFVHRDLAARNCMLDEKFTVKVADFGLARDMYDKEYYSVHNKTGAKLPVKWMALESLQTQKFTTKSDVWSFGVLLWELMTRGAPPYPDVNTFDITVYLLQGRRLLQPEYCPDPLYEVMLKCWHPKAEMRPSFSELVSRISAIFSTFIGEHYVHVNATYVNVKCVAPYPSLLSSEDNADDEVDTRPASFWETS
Description: as §1, §2

[10] = tested on: succinic dehydrogenase; settings: cited from earlier work
[11] = tested on: DU145 cells; experiment: Invasion through Matrigel; format: cell-based; settings: indicated concentrations; 33 ng/mL HGF; Matrigel 1:5
Description: For invasion (FIGS. 4C and 4D), wounded cells were overlaid with Matrigel diluted 1:5 in serum-free media; n=3.
Wound healing and invasion: DU145 cells were grown to ˜100% confluency prior to wounding with the IncuCyte™ WoundMaker™ (Essen Bioscience; Ann Arbor, Mich.) and washed once with complete media. For invasion, cells were covered with Matrigel diluted 1:5 in serum-free RPMI following wounding. […] Images were taken every 4 hours with the IncuCyte™ ZOOM imaging system (Essen Bioscience). Quadruplicate replicates were used in each experiment. Data are presented as percent wound density ±standard error of the mean (S.E.M.).

[12] = biological target: T2, c-Met (Homo sapiens, UniProt P08581); experiment: Western blot of pMet in c-Met amplified H1993 lung cancer cells without HGF; format: cell-based; design: endogenous in cells; settings: 5 μM compound; no HGF, constitutive c-Met activation
T2 sequence (P08581 25-1390): as above
Description: as §1
H1993 cells have c-Met amplification such that they have high levels of pMet, even in the absence of HGF, due to constitutive c-Met dimerization and autophosphorylation.
as §3

[13] = biological target: T2, c-Met; experiment: Western blot of c-Met activation (phospho-c-Met) by HGF in cancer cell lines; format: cell-based; design: endogenous in cells; host or cells: DU145, PC3, MDA-MB-231, HCC1806
Description: as §1
(§4) Western blot was used to analyze the indicated proteins.
as §4, §3

O=S(=O)(O)c1cc(N=C=S)ccc1C=Cc1ccc(N=C=S)cc1S(=O)(=O)O [DIDS, 4,4′-Diisothiocyanatostilbene-2,2′-disulfonic acid]
concentration inhibiting matrix metalloproteinase release [1]: ≥ 400 µM
IC50 [2]: 370 nM
tumor size (caliper) ([3]; 3×/week): began to reduce tumor size towards the end of the experiment
overall tumor weight at necropsy ([3]; end of experiment, *p<0.05): Differences in overall tumor weight were evident
proliferation in complete media in 2D assay ([4]; complete media): minimal effects
serum-free proliferation in 2D assay ([4]; serum-free media): minimal effects
IGFR activation [5]: do not significantly reduce
concentration inhibiting protein translocation across the ER membrane [6]: ≥ 400 µM
concentration reducing activity of F0F1-ATP synthase [7]: low micromolar concentrations
reduction of downstream Akt [8]: ~90%
IC50 [9]: 300 nM
concentration reducing activity of succinic dehydrogenase [10]: low micromolar concentrations
HGF-induced invasion through Matrigel [11]: inhibited HGF-induced invasion through Matrigel in a dose-dependent manner
pMet levels in H1993 cells [12]: much less significant effects
reduction of c-Met activation ([13]; 8 μM compound, DU145 cells, 33 ng/ml HGF 20 min, serum-free, Western blot densitometry): ~90%
pMet levels, compound given post HGF treatment ([13]; DU145, 33 ng/ml HGF 20 min, wash, then 4 μM DIDS 20 or 60 minutes): reduced pMet levels
reversibility of c-Met inhibition after wash ([13]; DU145, 4 μM DIDS 20 min, one wash, recovery from 20 minutes up to 1 hour, then 33 ng/ml HGF): does not irreversibly bind c-Met
effective concentrations for reducing c-Met activation in 10% FBS ([13]; DU145 cells, 33 ng/ml HGF 20 min, 10% FBS RPMI, compared with serum-free): slightly higher effective concentrations
c-Met inhibitory effective doses ([13]; multiple cancer cell lines (summary)): low micromolar range
